Read-outs that look alike come from different tables or passages of the source.
How the values were obtained:
FKBP12 [1] = target: T1, FKBP12 (Homo sapiens, UniProt P62942); assay: NanoBRET FKBP12 in intact HEK293 cells; format: cell-based
FKBP12 [2] = target: T1, FKBP12; assay: competitive fluorescence polarization assay, binding to FKBP12; conditions: competitive FP assay
BRD4^BD1 = target: T2, BRD4^BD1 (Homo sapiens, UniProt O60885); assay: competitive fluorescence polarization assay, BRD4 BD1 -/+ presenter protein; format: binding; conditions: for α BRD4^BD1 (binding cooperativity factor): ratio of binding in absence or presence of FKBP12
T2 construct: to the isolated BD1 and BD2 domains of BRD2, BRD3 and BRD4

BRD4 = target: T3, BRD4 (Homo sapiens, UniProt O60885); assay: NanoBRET BRD4, transient BRD4-NanoLuc in HEK293T cells; format: cell-based; conditions: intact HEK293 cells
T3 construct: full-length BRD4 fused to NanoLuc at N terminus; expressed in transfected cells; host or cells: HEK293T
Protocol: The NanoBRET assay was performed as described previously[26],[39]. To study BRD4 engagement, we employed two models: cells stably expressing BRD4-NanoLuc and cells with transient BRD4-NanoLuc expression. For stable cell lines, the coding sequence of human BRD4 (Isoform B) was fused in-frame to NanoLuc luciferase under the control of the human ubiquitin C (UbC) promoter, with left and right homology arms targeting the AAVS1 locus in intron 1 of the PPP1R12C gene to facilitate genomic integration. PC3 prostate cancer cells were transfected with this construct and vectors expressing Cas9 and an sgRNA targeting the AAVS1 locus using Lipofectamine 3000 (Invitrogen). Successful integrands were selected with blasticidin. Expression of the fusion protein was confirmed by western blot. For transient experiments, full-length BRD4 fused to NanoLuc at N terminus, was cloned into an expression plasmid and transfected into HEK293T cells using FuGENE HD (Promega, E2312), with protein expression allowed for 20 h. Serially diluted inhibitors and BRD Tracer-02 (Promega, TracerDB ID: T000022) at the Tracer KD concentration (from TracerDB)[40] were dispensed into white 384-well plates (Greiner 781207) using an ECHO 550 acoustic dispenser (Labcyte). The cells were trypsinized, resuspended in Opti-MEM without phenol red (Life Technologies), and seeded at 2 × 10^5 cells/mL. After equilibration for 2 h at 37 °C/5% CO₂ following compound treatment, the NanoBRET® NanoGlo Substrate + Extracellular NanoLuc® Inhibitor (Promega, N2162) was added according to the manufacturer’s protocol, and filtered luminescence was measured on a PHERAstar plate reader (BMG Labtech) using a donor (450 nm BP) and acceptor (610 nm LP) filter pair. Competitive displacement data were analyzed using GraphPad Prism 9 with a normalized 3-parameter curve fit: Y = 100/(1 + 10^(X − log IC₅₀)). For BRET measurements after FKBP12 knockdown in stably expressing BRD4 Nano-Luc reporter cell line, 10 nL/per well of the FKBP12 PROTAC was pipetted to each well using Labcyte to achieve the final concentration of 200 nM and the plated cells were incubated over-night at 37 °C and 5% CO2. BRET measurements were performed as outlined above.

BRD4^BD2 = target: T4, BRD4^BD2 (Homo sapiens, UniProt O60885); assay: competitive fluorescence polarization assay, BRD4 BD2 -/+ presenter protein; format: binding; conditions: for α BRD4^BD2 (binding cooperativity factor): ratio of binding in absence or presence of FKBP12
T4 construct: to the isolated BD1 and BD2 domains of BRD2, BRD3 and BRD4

[3] = absence of FKBP12, 2 nM JQ1-FL tracer, read-out: Binding to BRD4^BD2 - FKBP12 Kd
[4] = absence of FKBP12, 2 nM JQ1-FL tracer, read-out: Binding to BRD4^BD1 - FKBP12 Kd
[5] = presence of 15 µM FKBP12, read-out: Binding to BRD4^BD1 + FKBP12 Kd (converted)
[6] = presence of 15 µM FKBP12, read-out: Binding to BRD4^BD2 + FKBP12 Kd (converted)

T1 sequence (P62942 whole entry): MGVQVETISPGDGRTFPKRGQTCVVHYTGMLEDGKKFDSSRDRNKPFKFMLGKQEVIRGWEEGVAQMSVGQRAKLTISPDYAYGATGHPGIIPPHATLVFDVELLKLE

Row | SMILES | IC50 (FKBP12 [1]) [µM] | Kd (FKBP12 [2]) [µM] | α BRD4^BD1 (binding cooperativity factor) (BRD4^BD1) | IC50 (BRD4) [µM] | Kd (BRD4^BD2; [3]) [µM] | α BRD4^BD2 (binding cooperativity factor) (BRD4^BD2) | Kd (BRD4^BD1; [4]) [µM] | Kd (BRD4^BD1; [5]) [µM] | Kd (BRD4^BD2; [6]) [µM] | nanoBRET BRD4 IC50 (BRD4)
1 | Cc1sc2c(c1C)C(c1ccc(Cl)cc1)=NC(CC(=O)NCCOCCn1cc(C3CN(Cc4ccccn4)C(=O)C4CCCC3N4S(=O)(=O)c3cc(Cl)cc(Cl)c3)nn1)c1nnc(C)n1-2 (stereo not shown) [a1c] | 0.022 | 0.001 | 0.3 | 0.94 | 0.59 ± 0.11 | 0.4 | – | – | – | –
2 | Cc1sc2c(c1C)C(c1ccc(Cl)cc1)=NC(CC(=O)NCCOCCn1cc(COCC3CN(CC(=O)N4CCC(C)CC4)C(=O)C4CCCC3N4S(=O)(=O)c3cc(Cl)cc(Cl)c3)nn1)c1nnc(C)n1-2 (stereo not shown) [a1dk] | 0.0091 | 0.00047 | 2.6 | 1.19 | 0.32 ± 0.06 | 0.4 | 0.52 ± 0.09 | 0.2 ± 0.04 | 0.8 ± 0.1 | –
3 | Cc1sc2c(c1C)C(c1ccc(Cl)cc1)=NC(CC(=O)NCCOCCn1cc(COC(C)C3CN(Cc4ccccn4)C(=O)C4CCCC3N4S(=O)(=O)c3cc(Cl)cc(Cl)c3)nn1)c1nnc(C)n1-2 (stereo not shown) [a1e] | 0.103 | 0.0089 | 1.5 | 0.39 | 0.033 ± 0.009 | 0.6 | 0.07 ± 0.01 | 0.048 ± 0.007 | 0.06 ± 0.01 | –
4 | Cc1sc2c(c1C)C(c1ccc(Cl)cc1)=NC(CC(=O)NCCOCCn1cc(COC(C)C3CN(Cc4ccccn4)C(=O)C4CCCC3N4S(=O)(=O)c3cc(Cl)cc(Cl)c3)nn1)c1nnc(C)n1-2 (stereo not shown) [a1f] | 0.024 | 0.0016 | 1.3 | 0.56 | 0.05 ± 0.014 | 0.2 | 0.18 ± 0.02 | 0.14 ± 0.014 | 0.23 ± 0.03 | –
5 | C=CC1CN(Cc2ccccn2)C(=O)C2CCCC1N2S(=O)(=O)c1cc(Cl)cc(-c2cn(CCOCCNC(=O)CC3N=C(c4ccc(Cl)cc4)c4c(sc(C)c4C)-n4c(C)nnc43)nn2)c1 (stereo not shown) [a1g] | 0.23 | 0.046 | – | 1.5 | – | 0.2 | – | > 20 | – | –
6 | C=CC1CN(Cc2ccccn2)C(=O)C2CCCC1N2S(=O)(=O)c1ccc(-c2cn(CCOCCNC(=O)CC3N=C(c4ccc(Cl)cc4)c4c(sc(C)c4C)-n4c(C)nnc43)nn2)c(Cl)c1 (stereo not shown) [a1h] | 0.53 | 0.05 | – | 0.27 | 0.052 ± 0.013 | – | 0.1 ± 0.018 | 1.7 ± 0.2 | 1.1 ± 0.2 | –
7 | C=CC1CN(Cc2cn(CCOCCNC(=O)CC3N=C(c4ccc(Cl)cc4)c4c(sc(C)c4C)-n4c(C)nnc43)nn2)C(=O)C2CCCC1N2S(=O)(=O)c1cc(Cl)cc(Cl)c1 (stereo not shown) [a1i] | 0.2 | 0.01 | 0.5 | 0.56 | 0.91 ± 0.16 | 0.3 | – | – | – | –
8 | Cc1sc2c(c1C)C(c1ccc(Cl)cc1)=NC(CC(=O)NCCOCCOCCn1cc(C3CN(Cc4ccccn4)C(=O)C4CCCC3N4S(=O)(=O)c3cc(Cl)cc(Cl)c3)nn1)c1nnc(C)n1-2 (stereo not shown) [a2c] | 0.017 | 0.0006 | 1.8 | 0.62 | 0.51 ± 0.11 | 0.5 | 0.44 ± 0.07 | 0.25 ± 0.04 | – | –
9 | C=CC1CN(Cc2ccccn2)C(=O)C2CCCC1N2S(=O)(=O)c1cc(Cl)cc(-c2cn(CCOCCOCCNC(=O)CC3N=C(c4ccc(Cl)cc4)c4c(sc(C)c4C)-n4c(C)nnc43)nn2)c1 (stereo not shown) [a2g] | – | 0.076 | 0.4 | 3.07 | 0.58 ± 0.09 | 0.4 | – | – | – | –
10 | C=C[C@H]1CN(Cc2ccccn2)C(=O)[C@@H]2CCC[C@H]1N2S(=O)(=O)c1ccc(-c2cn(CCOCCOCCNC(=O)C[C@@H]3N=C(c4ccc(Cl)cc4)c4c(sc(C)c4C)-n4c(C)nnc43)nn2)c(Cl)c1 [a2h] | 0.17 | 0.0024 | – | 0.3 | 0.046 ± 0.01 | – | 0.21 ± 0.018 | 2.4 ± 0.2 | 1.3 ± 0.2 | –
11 | C=CC1CN(Cc2cn(CCOCCOCCNC(=O)CC3N=C(c4ccc(Cl)cc4)c4c(sc(C)c4C)-n4c(C)nnc43)nn2)C(=O)C2CCCC1N2S(=O)(=O)c1cc(Cl)cc(Cl)c1 (stereo not shown) [a2i] | 0.18 | 0.0087 | 1.1 | 0.79 | 0.14 ± 0.03 | 0.1 | 0.33 ± 0.04 | 0.29 ± 0.03 | 0.96 ± 0.12 | –
12 | Cc1sc2c(c1C)C(c1ccc(Cl)cc1)=NC(CC(=O)N1CCN(CCn3cc(COCC4CN(Cc5ccccn5)C(=O)C5CCCC4N5S(=O)(=O)c4cc(Cl)cc(Cl)c4)nn3)CC1)c1nnc(C)n1-2 (stereo not shown) [a4d] | 0.089 | 0.0011 | 1.3 | – | – | 1 | 0.5 ± 0.06 | 0.38 ± 0.05 | – | none
13 | Cc1sc2c(c1C)C(c1ccc(Cl)cc1)=NC(CC(=O)N1CCN(CCCn3cc(COCC4CN(Cc5ccccn5)C(=O)C5CCCC4N5S(=O)(=O)c4cc(Cl)cc(Cl)c4)nn3)CC1)c1nnc(C)n1-2 (stereo not shown) [a5d] | 0.093 | 0.0012 | 2.5 | 1.08 | – | 1.8 | 0.74 ± 0.1 | 0.3 ± 0.05 | 0.6 ± 0.1 | –
14 | Cc1sc2c(c1C)C(c1ccc(Cl)cc1)=NC(CC(=O)N1CCN(CCCCn3cc(COCC4CN(Cc5ccccn5)C(=O)C5CCCC4N5S(=O)(=O)c4cc(Cl)cc(Cl)c4)nn3)CC1)c1nnc(C)n1-2 (stereo not shown) [a6d] | 0.141 | 0.0009 | 1.5 | 0.787 | – | 1.8 | 0.6 ± 0.08 | 0.4 ± 0.05 | 0.8 ± 0.2 | –
